The target in one assay is T1, Coagulation factor X (Homo sapiens, UniProt P00742). Put plainly: Binding affinity against Coagulation factor X.
T1 sequence (P00742 41-179 limits assumed): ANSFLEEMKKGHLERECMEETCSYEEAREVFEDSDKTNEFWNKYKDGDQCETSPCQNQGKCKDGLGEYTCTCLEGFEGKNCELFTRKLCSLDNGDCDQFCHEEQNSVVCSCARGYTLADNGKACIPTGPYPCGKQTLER
T1 sequence (P00742 235-488 limits assumed): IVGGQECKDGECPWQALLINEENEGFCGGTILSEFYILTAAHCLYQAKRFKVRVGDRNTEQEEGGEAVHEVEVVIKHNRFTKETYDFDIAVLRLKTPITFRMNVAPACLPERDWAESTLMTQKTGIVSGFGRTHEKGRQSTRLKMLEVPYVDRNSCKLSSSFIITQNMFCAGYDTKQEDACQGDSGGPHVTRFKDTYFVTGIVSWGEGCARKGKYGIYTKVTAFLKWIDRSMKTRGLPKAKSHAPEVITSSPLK
In the case of `Nc1cc(C2=NOC(C(=O)Nc3ccc(-c4ccccc4S(N)(=O)=O)cc3)C2)ccc1Cl` (configuration not stated), the Ki (usually a measure of affinity in units of concentration, obtained from inhibition or displacement) came to 0.13 µM.

A further assay addresses T1, Coagulation factor X. In words: Binding affinity against the coagulation factor X.
As to `NS(=O)(=O)c1ccccc1-c1ccc(NC(=O)C2CC(c3ccc(F)c(F)c3)=NO2)cc1` (configuration not stated), the inhibition constant (Ki) was found to be 4.6 µM.

`NS(=O)(=O)c1ccccc1-c1ccc(NC(=O)C2CC(c3cccc(F)c3)=NO2)cc1` (configuration not stated) registered an inhibition constant (Ki) of 7.8 µM.

The compound `NS(=O)(=O)c1ccccc1-c1ccc(NC(=O)C2CC(c3cccc(Cl)c3)=NO2)cc1` (configuration not stated) gave an inhibition constant (Ki) of 5.9 µM.

Compound `COc1cccc(C2=NOC(C(=O)Nc3ccc(-c4ccccc4S(N)(=O)=O)cc3)C2)c1` (configuration not stated) showed a Ki of 7.5 µM.

Turning to `CCCCCC1=NOC(C(=O)Nc2ccc(-c3ccccc3S(N)(=O)=O)cc2)C1` (configuration not stated), the Ki was found to be 4.5 µM.

`NS(=O)(=O)c1ccccc1-c1ccc(NC(=O)C2CC(c3ccc(Br)cc3)=NO2)cc1` (configuration not stated) had an inhibition constant (Ki) of 4.1 µM.

Compound `NS(=O)(=O)c1ccccc1-c1ccc(NC(=O)C2CC(c3ccc(Cl)cc3)=NO2)cc1` (configuration not stated) yielded a Ki of 1 µM.

For the compound `NS(=O)(=O)c1ccccc1-c1ccc(NC(=O)C2CC(c3ccc(I)cc3)=NO2)cc1` (configuration not stated), affinity was put at a Ki of 1.9 µM.

For the next assay, the target named is T1, Coagulation factor X. In words: Binding affinity against the Factor Xa (FXa).
`NS(=O)(=O)c1ccccc1-c1ccc(NC(=O)C2CC(c3ccc4c(c3)OCO4)=NO2)cc1` (configuration not stated) gave a Ki of 0.49 µM.

`NS(=O)(=O)c1ccccc1-c1ccc(NC(=O)C2CC(c3ccc(Cl)c(Cl)c3)=NO2)cc1` (configuration not stated): the inhibition constant Ki turned out to be 2.7 µM.

`Cc1ccc(C2=NOC(C(=O)Nc3ccc(-c4ccccc4S(N)(=O)=O)cc3)C2)cc1` (configuration not stated) had a Ki of 2.1 µM.

Compound `COc1cc(C2=NOC(C(=O)Nc3ccc(-c4ccccc4S(N)(=O)=O)cc3)C2)ccc1O` (configuration not stated) returned a Ki of 20 µM.

`NS(=O)(=O)c1ccccc1-c1ccc(NC(=O)C2CC(c3ccc(C(F)F)cc3)=NO2)cc1` (configuration not stated) showed a Ki of 1.6 µM.

In turn, `NS(=O)(=O)c1ccccc1-c1ccc(NC(=O)C2CC(c3ccc(-c4ccccc4)cc3)=NO2)cc1` (configuration not stated) had a Ki of 1.1 µM.

In the case of `COc1ccc2ccccc2c1C1=NOC(C(=O)Nc2ccc(-c3ccccc3S(N)(=O)=O)cc2)C1` (configuration not stated), the inhibition constant (Ki) was over 3 µM.

As to `CCCCCCOc1ccccc1C1=NOC(C(=O)Nc2ccc(-c3ccccc3S(N)(=O)=O)cc2)C1` (configuration not stated), affinity was put at a Ki of 1.8 µM.

`NS(=O)(=O)c1ccccc1-c1ccc(NC(=O)C2CC(/C=C/c3ccccc3)=NO2)cc1` (configuration not stated) had an inhibition constant Ki of 2.3 µM.

In turn, `NS(=O)(=O)c1ccccc1-c1ccc(NC(=O)C2CC(c3cccc(I)c3)=NO2)cc1` (configuration not stated) had a Ki of 10 µM.

In turn, `NS(=O)(=O)c1ccccc1-c1ccc(NC(=O)C2CC(c3ccccc3)=NO2)cc1` (configuration not stated) registered an inhibition constant Ki of 11 µM.

`NS(=O)(=O)c1ccccc1-c1ccc(NC(=O)C2CC(c3cc(I)c(O)c(I)c3)=NO2)cc1` (configuration not stated): the inhibitory constant (Ki) was over 30 µM.

On to `NS(=O)(=O)c1ccccc1-c1ccc(NC(=O)C2CC(c3cccc(C(F)(F)F)c3)=NO2)cc1` (configuration not stated), for which the inhibition constant (Ki) was determined as 17 µM.

For `COc1ccc(C2=NOC(C(=O)Nc3ccc(-c4ccccc4S(N)(=O)=O)cc3)C2)cc1` (configuration not stated), the Ki is 0.7 µM.

`NS(=O)(=O)c1ccccc1-c1ccc(NC(=O)C2CC(c3ccc4c(c3Cl)OCO4)=NO2)cc1` (configuration not stated) registered an inhibitory constant (Ki) of 1.7 µM.

`NS(=O)(=O)c1ccccc1-c1ccc(NC(=O)C2CC(c3ccc(O)cc3)=NO2)cc1` (configuration not stated): the affinity, expressed as Ki, was 22 µM.

As for `NS(=O)(=O)c1ccccc1-c1ccc(NC(=O)C2CC(c3cccc(O)c3)=NO2)cc1` (configuration not stated), the Ki is over 3 µM.

The compound `CO[C@@H]1[C@H]2OC(C)(C)O[C@H]2O[C@H]1C1=NOC(C(=O)Nc2ccc(-c3ccccc3S(N)(=O)=O)cc2)C1` (some centres not stated) showed a Ki of over 30 µM.

Regarding `COc1ccc(Br)cc1C1=NOC(C(=O)Nc2ccc(-c3ccccc3S(N)(=O)=O)cc2)C1` (configuration not stated), the Ki is over 30 µM.

In the case of `NS(=O)(=O)c1ccccc1-c1ccc(NC(=O)C2CC(c3cccc(Br)c3)=NO2)cc1` (configuration not stated), the inhibitory constant (Ki) was over 30 µM.

`NS(=O)(=O)c1ccccc1-c1ccc(NC(=O)C2CC(c3ccc(Cl)c(F)c3)=NO2)cc1` (configuration not stated) had a Ki of 2.5 µM.

With `NS(=O)(=O)c1ccccc1-c1ccc(NC(=O)C2C[C+](c3ccc(Cl)c([N+](=O)[O-])c3)[N-]O2)cc1` (configuration not stated), the inhibition constant (Ki) is over 30 µM.

`NS(=O)(=O)c1ccccc1-c1ccc(NC(=O)C2CC(c3cccs3)=NO2)cc1` (configuration not stated): the affinity corresponds to a Ki of 1.3 µM.

Take `NS(=O)(=O)c1ccccc1-c1ccc(NC(=O)C2CC(c3ccc4c(c3[N+](=O)[O-])OCO4)=NO2)cc1` (configuration not stated): the Ki turned out to be 2.4 µM.

In the case of `NS(=O)(=O)c1ccccc1-c1ccc(NC(=O)C2CC(c3cccc4ccccc34)=NO2)cc1` (configuration not stated), the Ki is over 30 µM.

Compound `NS(=O)(=O)c1ccccc1-c1ccc(NC(=O)C2CC(CCc3ccccc3)=NO2)cc1` (configuration not stated) yielded a Ki of over 30 µM.

In the case of `NS(=O)(=O)c1ccccc1-c1ccc(NC(=O)C2CC(c3cccc(C(=O)O)c3)=NO2)cc1` (configuration not stated), the Ki was over 30 µM.

Take `NS(=O)(=O)c1ccccc1-c1ccc(NC(=O)C2CC(c3ccccc3Cl)=NO2)cc1` (configuration not stated): the inhibition constant Ki turned out to be 1.7 µM.

`NS(=O)(=O)c1ccccc1-c1ccc(NC(=O)C2CC(c3c(O)ccc4ccccc34)=NO2)cc1` (configuration not stated) showed an inhibition constant (Ki) of over 30 µM.

`NS(=O)(=O)c1ccccc1-c1ccc(NC(=O)C2CC(c3ccc4ccccc4c3)=NO2)cc1` (configuration not stated) gave a Ki of 20 µM.

As for `NS(=O)(=O)c1ccccc1-c1ccc(NC(=O)C2CC(c3ccc(Cl)cc3Cl)=NO2)cc1` (configuration not stated), the Ki was 1.7 µM.

`NS(=O)(=O)c1ccccc1-c1ccc(NC(=O)C2CC(/C=C/c3ccco3)=NO2)cc1` (configuration not stated) showed a Ki of 2.3 µM.

As for `CCCCCCCCCCC1=NOC(C(=O)Nc2ccc(-c3ccccc3S(N)(=O)=O)cc2)C1` (configuration not stated), affinity was put at a Ki of 17 µM.

The record behind these values is ChEMBL document CHEMBL1136396, “Discovery of 3-amino-4-chlorophenyl P1 as a novel and potent benzamidine mimic via solid-phase synthesis of an isoxazoline library” (Bioorg Med Chem Lett, 2003).
